Measured values as given in the NIST ThermoML archive (doi:10.1021/je401118k).
Numbers after ± are expanded uncertainties.

Experiment: mn = molality of the nth substance listed, in mol/kg
Settings: 298.15 K, Ring tensiometer

SMILES: CC(=O)[O-].C[N+]1(CCC[Si](O[Si](C)(C)C)(O[Si](C)(C)C)O[Si](C)(C)C)CCCC1 + O
- surface tension liquid-gas (m1 = 1e-06): 70.5 ± 0.9 mN/m
- surface tension liquid-gas (m1 = 1e-05): 58.2 ± 0.8 mN/m
- surface tension liquid-gas (m1 = 0.0001): 47.1 ± 0.6 mN/m
- surface tension liquid-gas (m1 = 0.0002): 42.4 ± 0.6 mN/m
- surface tension liquid-gas (m1 = 0.0004): 36.9 ± 0.5 mN/m
- surface tension liquid-gas (m1 = 0.0006): 32.1 ± 0.5 mN/m
- surface tension liquid-gas (m1 = 0.0008): 29.7 ± 0.4 mN/m
- surface tension liquid-gas (m1 = 0.001): 27.8 ± 0.4 mN/m
- surface tension liquid-gas (m1 = 0.002): 23.5 ± 0.4 mN/m
- surface tension liquid-gas (m1 = 0.003): 21.5 ± 0.4 mN/m
- surface tension liquid-gas (m1 = 0.004): 20.2 ± 0.4 mN/m
- surface tension liquid-gas (m1 = 0.005): 20 ± 0.4 mN/m
- surface tension liquid-gas (m1 = 0.006): 20 ± 0.4 mN/m
- surface tension liquid-gas (m1 = 0.007): 20 ± 0.4 mN/m
- surface tension liquid-gas (m1 = 0.008): 20 ± 0.4 mN/m
- surface tension liquid-gas (m1 = 0.009): 20 ± 0.4 mN/m
